According to patent US20110052503A1, “BIODEGRADABLE CONTRAST AGENTS” (IOPHARMA TECHNOLOGIES AB, priority 2007, published 2011):

Test: Stability of iohexyl hexa-acetate in human plasma
Conditions: iohexyl formed from 300 μM IHA in citrated plasma, 37° C., FIG. 1
Method: A stock solution of iohexyl hexa-acetate was prepared by adding 100 mg IHA to a 100 ml volumetric flask, followed by 1.0 ml DMSO and deionised water to 100 ml, giving a final concentration of 1.0 mg/ml. The plasma solution was prepared by adding 1.61 ml of the IHA stock solution to 3.39 ml of citrated bovine plasma, giving a final concentration of 300 μM. The citrated human plasma was incubated at 37° C., and 0.25 ml plasma removed at 1, 2, 3, 4, 6, 8, 24, 30 and 48 h. Proteins were discarded from the samples by centrifugal filtration and the resulting filtrates analyzed by HPLC.

concentration of iohexyl in plasma, first 8 h (first 8 h): constant
concentration of iohexyl in plasma, 8 to 48 h (from 8 to 48 h): increases dramatically
Compound: CC(=O)N(CC(O)CO)c1c(I)c(C(=O)NCC(O)CO)c(I)c(C(=O)NCC(O)CO)c1I (centres unmarked) [iohexyl]
